Experimental findings from article PMC10505147, “Ustilago maydis PR-1-like protein has evolved two distinct domains for dual virulence activities” (Nature Communications, 2023) are described below.

The target of one assay is T1, UmPR-1La (PR-1La) (Mycosarcoma maydis, UniProt A0A0D1E5M0).
T1 construct: gene UMAG_01204; His-tagged full-length protein without signal peptide (PR-1La 24-279), expressed in E. coli Shuffle T7, Ni-NTA and size exclusion
Briefly: intrinsic tryptophan fluorescence. It counts as binding. The following applies: 0.25 µM protein, 50 mM sodium acetate pH 5.5, room temperature, 15 min.

Assay [1] concerns the target T2, CatB3 (Cathepsin B-like 3) (Zea mays, UniProt A0A804QEY3).
T2 construct: gene LOC100283781; untagged, expressed with signal peptide in Nicotiana benthamiana by agroinfiltration, purified from apoplastic fluid by size exclusion
The assay is classed as biochemical. The following applies: 0.5 mM inhibitor, substrate UmPR-1La-HA culture supernatant, 50 mM sodium acetate, 10 mM DTT, pH 5.5, 28 °C.

T1 sequence (A0A0D1E5M0 entry or part of it): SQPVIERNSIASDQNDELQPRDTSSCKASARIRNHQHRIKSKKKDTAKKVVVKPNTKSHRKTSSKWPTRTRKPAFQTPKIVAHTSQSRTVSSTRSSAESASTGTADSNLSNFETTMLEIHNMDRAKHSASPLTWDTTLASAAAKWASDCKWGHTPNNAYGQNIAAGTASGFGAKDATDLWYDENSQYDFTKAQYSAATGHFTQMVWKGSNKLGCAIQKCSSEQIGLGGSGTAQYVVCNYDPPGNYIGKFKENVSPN
T2 sequence (A0A804QEY3 entry or part of it): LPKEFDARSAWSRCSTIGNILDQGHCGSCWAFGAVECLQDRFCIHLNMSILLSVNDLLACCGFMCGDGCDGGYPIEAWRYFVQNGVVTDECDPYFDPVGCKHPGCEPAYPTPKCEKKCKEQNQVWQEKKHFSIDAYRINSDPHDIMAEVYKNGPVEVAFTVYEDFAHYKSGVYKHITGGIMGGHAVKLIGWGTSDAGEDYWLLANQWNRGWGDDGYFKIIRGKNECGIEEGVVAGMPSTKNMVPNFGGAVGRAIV

`COc1cc(/C=C/C(=O)O)ccc1O` [ferulic acid]: the intrinsic tryptophan fluorescence result on UmPR-1La (PR-1La) (5 µM or varied ligand, caveolin-binding motif site) is reported as “the intrinsic fluorescence intensity of PR-1La decreased in an FA-concentration-dependent manner”.
On to `COc1cc(/C=C/CO)ccc1O` [coniferyl alcohol], for which the intrinsic tryptophan fluorescence entry on UmPR-1La (PR-1La) is recorded as “both versions of the PR-1La proteins responded to CA by causing a shift”.
As to `CC(C)C[C@H](NC(=O)[C@H]1O[C@@H]1C(=O)O)C(=O)NCCCCN=C(N)N` [E64], in assay [1], the “inhibition of UmPR-1La cleavage (immunoblot)” value is “The activity of CatB3 was blocked by E64 (Fig. 5b)”.
